Assays:
[1] = system: equine melanoma cells MelDuWi; parameters: method as in PMID 26772157; details: 96 h incubation, read-out: IC50, sulforhodamine B assay; cited from earlier work
[2] = system: primary equine melanoma cells eRGO1; test: Crystal violet staining (CVS) proliferation assay; type: cell-based, horse; details: Equus caballus, mean (95% CI), 6–8 experiments
Experimental: (§1) The inhibitory effect of BA on cell proliferation was evaluated using a modified crystal violet staining (CVS) assay. In brief, cells were seeded into 96-well microtiter plates with a density of 5000 cells/well to avert confluence of the cells during the experimental period. Twenty-four hours later, the cells were treated with serial dilutions of BA dissolved in DMSO and medium at nine different concentrations ranging from 1 to 100 μmol/L. The highest concentration of DMSO solvent was 0.5% in 100 μmol/L, which had neither an impact on the cell proliferation rate nor on the cell survival rate (preliminary experiments and regular controls within the experiments; data not shown). Control cells were only treated with medium. The proportion of treated cells in relation to untreated controls was determined 5, 24, 48 and 96 h after the beginning of the drug exposure. The medium for 96-h experiments was renewed before cell treatment (24 h after inoculation). The medium-compound mix was discarded at the time points mentioned above and cells were fixed with 2% glutaraldehyde (Sigma-Aldrich) in PBS for 20 min. Glutaraldehyde was removed and cells were dyed for 30 min with 0.1% crystal violet (Roth GmbH, Karlsruhe, Germany) in deionized water. After washing with deionized water, the plates were air-dried. Subsequently, crystal violet was solubilized out of the cells by adding 2% Triton X-100 (Sigma-Aldrich, Steinheim, Germany) in deionized water. After 1 h of incubation, absorbance was measured at 570 nm using a 96-well microtiter plate reader (MRX microplate reader, Dynatech Laboratories, El Paso, US). Experiments were performed in six to eight biological replicates with two technical replicates for each combination of cell type, incubation time and pharmacologic compound concentration. The ratios of mean optical density of the duplicate to mean optical density of the associated controls were used for dose-response curves.
(§2) Technical duplicates with a coefficient of variation of more than 20% were excluded from the analysis of the cell assays. The pharmacodynamic model 108 of Phoenix® WinNonlin® software (version 8.1, Certara, USA) was used to determine half-maximal inhibitory concentrations (IC50 values). Further statistical analysis was performed with R 3.5.1 [60]. A generalized additive model was fitted for both MTS and CVS using the ‘mgcv’ package to estimate the effects of the BA concentration, cell line and duration of incubation on the ratio of the mean optical density of the duplicates from six to eight replicates to the mean optical density of the associated controls. The effect of concentration was modelled as a smoothed term interacting with the duration of incubation using a thin plate regression spline. The P-values were obtained by performing a Wald test for each parameter. Post-hoc comparisons for the cell line and duration of incubation were performed using the ‘multcomp’ package with single-step adjustment of the P-values. Plots were produced with ggplot2 [63]. Statistical significance was set at P < 0.05.

[3] = system: primary equine dermal fibroblasts PriFi2; test: Crystal violet staining (CVS) proliferation assay; type: cell-based, horse; details: Equus caballus, Fibroblast, mean (95% CI), 6–8 experiments
Experimental: as §1, §2

[4] = system: primary equine melanoma cells MelDuWi; test: Crystal violet staining (CVS) proliferation assay; type: cell-based, horse; details: Equus caballus, mean (95% CI), 6–8 experiments
Experimental: as §1, §2

[5] = system: primary equine dermal fibroblasts PriFi1; test: Crystal violet staining (CVS) proliferation assay; type: cell-based, horse; details: Equus caballus, Fibroblast, mean (95% CI), 6–8 experiments
Experimental: as §1, §2

[6] = system: primary equine melanoma cells compared to primary equine dermal fibroblasts; test: Selectivity to tumor cells compared to normal cells (MTS and CVS assays); type: cell-based, horse; details: equine melanoma cells eRGO1, MelDuWi vs fibroblasts PriFi1, PriFi2
Experimental: The inhibitory effect of BA on cell proliferation was evaluated using a modified crystal violet staining (CVS) assay. In brief, cells were seeded into 96-well microtiter plates with a density of 5000 cells/well to avert confluence of the cells during the experimental period. Twenty-four hours later, the cells were treated with serial dilutions of BA dissolved in DMSO and medium at nine different concentrations ranging from 1 to 100 μmol/L. The highest concentration of DMSO solvent was 0.5% in 100 μmol/L, which had neither an impact on the cell proliferation rate nor on the cell survival rate (preliminary experiments and regular controls within the experiments; data not shown). Control cells were only treated with medium. The proportion of treated cells in relation to untreated controls was determined 5, 24, 48 and 96 h after the beginning of the drug exposure. […] After 1 h of incubation, absorbance was measured at 570 nm using a 96-well microtiter plate reader (MRX microplate reader, Dynatech Laboratories, El Paso, US). […]
The cytotoxicity of BA was evaluated using the CellTiter 96® AQueous One Solution Cell Proliferation Assay (MTS) (Promega GmbH, Mannheim, Germany). […] After 1 h incubation, the plate absorbance was measured at 490 nm using a 96-well microtiter plate reader (MRX microplate reader, Dynatech Laboratories, El Paso, US). […]

[7] = system: primary equine melanoma cells eRGO1; test: MTS cytotoxicity assay (CellTiter 96 AQueous One Solution); type: cell-based, horse; details: Equus caballus, mean (95% CI), 6–8 experiments
Experimental: as §1
(§3) The cytotoxicity of BA was evaluated using the CellTiter 96® AQueous One Solution Cell Proliferation Assay (MTS) (Promega GmbH, Mannheim, Germany). Cells were seeded into 96-well microtiter plates with the appropriate cell densities to achieve confluence after 48 h (MelDuWi 30.000 cells/well; PriFi1, PriFi2, eRGO1 20.000 cells/well). After 48 h, these cells were treated in accordance with the CVS assay. Experiments were stopped at the same time points as the CVS assay. The medium for the 96-h experiments was renewed before treatment. The MTS was applied in accordance with the manufacturer’s instructions. After 1 h incubation, the plate absorbance was measured at 490 nm using a 96-well microtiter plate reader (MRX microplate reader, Dynatech Laboratories, El Paso, US). Experiments were performed in six to eight biological replicates with two technical replicates for each combination of pharmacologic compound, cell type, incubation time and concentration.
as §2, with “Plots were produced with ggplot2 [63]. Statistical significance was set at P < 0.05.” left out

[8] = system: primary equine dermal fibroblasts PriFi2; test: as above; type: cell-based, horse; details: Equus caballus, Fibroblast, mean (95% CI), 6–8 experiments
Experimental: as §1, §3
as §2, with “Plots were produced with ggplot2 [63]. Statistical significance was set at P < 0.05.” left out

[9] = system: primary equine melanoma cells MelDuWi; test: as above; type: cell-based, horse; details: Equus caballus, mean (95% CI), 6–8 experiments
Experimental: as §1, §3
as §2, with “Plots were produced with ggplot2 [63]. Statistical significance was set at P < 0.05.” left out

[10] = system: primary equine dermal fibroblasts PriFi1; test: as above; type: cell-based, horse; details: Equus caballus, Fibroblast, mean (95% CI), 6–8 experiments
Experimental: as §1, §3
as §2, with “Plots were produced with ggplot2 [63]. Statistical significance was set at P < 0.05.” left out

[11] = Franz-type diffusion cell penetration and permeation on isolated equine skin; type: in vitro ADME, horse; details: 24 h FDC
Description: Skin samples from seven adult horses of different sex (three mares, two geldings, two unknown) and breed (including three Warmbloods, one Icelandic horse and one Welsh Cob pony, two unknown) were harvested at the Institute of Pathology, University of Veterinary Medicine Hannover, Foundation, Hannover, after euthanasia at the Clinic for Horses, University of Veterinary Medicine Hannover, Foundation, Hannover, for reasons unrelated to the present study. The horses’ ages ranged from 4 to 24 years, with a median of 13.5 years. Skin from the lateral thorax was dissected and stored at − 20 °C for up to 5 months.
“Basiscreme DAC” (pharmaceutical amphiphilic formulation as published in the German Drug Codex) with 1% BA and 20% medium-chain triglycerides was provided by Skinomics GmbH, Halle, Germany.
In order to investigate the penetration and permeation of 1% BA with 20% medium-chain triglycerides in “Basiscreme DAC” through equine skin, the skin samples were defrosted overnight at room temperature. The coat was clipped to a length of approximately 0.5 mm. The integrity of the skin samples was visually assessed. Skin slices of 800 μm (+/− 110 μm) thickness were obtained with an electrical dermatome (Zimmer, Eschbach, Germany). Franz-type diffusion cells (FDC) (PermeGear, Riegelsville, USA, and Gauer Glas, Püttlingen, Germany) with a diffusion area of 1.77 cm^2 and an acceptor chamber volume of approximately 12 mL were filled with PBS and 1% bovine serum albumin. The acceptor chamber content was constantly stirred with a magnetic stirrer at 500 rpm. Diffusion chambers were maintained at 34 °C to ensure a skin temperature of 32 ± 0.5 °C. Before use, equal hydration of the skin samples was obtained by 30 min immersion in PBS. After gently drying with a paper tissue, 20 mg of the drug formulation was carefully applied to the skin surface (stratum corneum) covering the complete diffusion area before mounting the skin pieces onto the FDC. The donor chamber and sampling tube were covered with parafilm.
After 24 h, the remaining donor formulation was removed from the skin with a dry cotton swab. Cotton swabs, acceptor medium and exposed areas of the skin samples, which were cut out with a scalpel blade, were stored at − 20 °C until further processing and analysis. In order to determine the amount of BA in different skin layers, frozen skin samples were fixed on tissue freezing medium (Leica Biosystems Nussloch GmbH, Nussloch, Germany) and placed in a cryostat (CryoStar™ NX70 Cryostat, Thermofisher, Darmstadt, Germany). From each skin sample slices were cut horizontally to the epidermis, starting with the stratum corneum side uppermost, and stored separately. […] After reaching a skin depth of 310 μm, slices were pooled at 5 × 20 μm until a depth of a maximum of 910 μm was reached. The blade was cleaned with tissues soaked in 70% ethanol (CG Chemikalien, Laatzen, Germany) between each cut. These cleaning tissues and skin samples were stored at − 20 °C until final analysis. An analytic high-performance liquid chromatography method was developed for BA quantification in the different skin layers, acceptor medium and cleaning utensils mentioned previously. Reverse phase analysis was performed using an Agilent 1100 system (Agilent, Waldbronn, Germany) on a Kinetex column (5 μm, C18, 100 Å, 250 × 4.6 mm; Phenomenex, Torrance, US) at 35 °C developing with acetonitrile:water (0.1% HCOOH) 4:1 (v/v) at 2.5 mL/min. The diode array detector was set at 200 nm.

[12] = system: equine melanoma cells MelJess; parameters: method as in PMID 26772157; details: 96 h incubation, read-out: IC50, sulforhodamine B assay; cited from earlier work
[13] = system: actinic keratoses; parameters: method as in PMID 18808378; details: 14 human patients; cited from earlier work
[14] = 1% BA with 20% medium-chain triglycerides in Basiscreme DAC, mean ± SD

In the case of `C=C(C)[C@@H]1CC[C@]2(C(=O)O)CC[C@]3(C)[C@H](CC[C@@H]4[C@@]5(C)CC[C@H](O)C(C)(C)[C@@H]5CC[C@]43C)[C@@H]12` [betulinic acid, Betulinic acid], the IC50 [1] is given as 33.1 µM, the IC50 ([2]; eRGO1, 24 h treatment) is given as 25.9 µM and the IC50 ([2]; eRGO1, 48 h treatment) is given as 21.2 µM. It also gave an IC50 ([2]; eRGO1, 96 h treatment) of 19.6 µM, an IC50 ([3]; PriFi2, 24 h treatment) of 30.3 µM and an IC50 ([3]; PriFi2, 48 h treatment) of 29.1 µM. It also gave an IC50 ([3]; PriFi2, 96 h treatment) of 13.8 µM, an IC50 ([4]; 24 h treatment) of 49.2 µM and an IC50 ([4]; 48 h treatment) of 35.8 µM. It also gave an IC50 ([4]; 96 h treatment) of 21.6 µM, an IC50 ([5]; PriFi1, 24 h treatment) of 58 µM and an IC50 ([5]; PriFi1, 48 h treatment) of 52.2 µM. The IC50 ([5]; PriFi1, 96 h treatment) was 14.5 µM, the “selectivity to tumor cells compared to normal cells” value [6] was “could not be demonstrated” and the IC50 ([7]; eRGO1, 24 h treatment) was 22.8 µM. It also gave an IC50 ([7]; eRGO1, 48 h treatment) of 20.7 µM, an IC50 ([7]; eRGO1, 96 h treatment) of 12.7 µM and an IC50 ([8]; PriFi2, 24 h treatment) of 24.8 µM. The IC50 ([8]; PriFi2, 48 h treatment) was 22.7 µM, the IC50 ([8]; PriFi2, 96 h treatment) was 13.3 µM and the IC50 ([9]; 24 h treatment) was 34.6 µM. For the same molecule, the IC50 ([9]; 48 h treatment) was 31.7 µM, the IC50 ([9]; 96 h treatment) was 23.6 µM and the IC50 ([10]; PriFi1, 24 h treatment) was 20.4 µM. For the same molecule, the IC50 ([10]; PriFi1, 48 h treatment) was 18 µM, the IC50 ([10]; PriFi1, 96 h treatment) was 13.8 µM and the “BA amount applied analyzed in the skin” value [11, 14] was 24 ± 1%. For the same molecule, the “amount of BA applied detected in the acceptor media” value [11, 14] was 18 ± 11%, the “amount of BA applied detected in the cotton swabs” value ([11]; 1% BA with 20% medium-chain triglycerides in Basiscreme DAC, remaining donor formulation, mean ± SD) was 56 ± 13% and the recovery at 24 h, 1 % ([11]; both sexes, horse, 1% BA with 20% medium-chain triglycerides in Basiscreme DAC, mean ± SD, n = 7, read-out: overall BA recovery) was 98 ± 7%. For the same molecule, the “BA amount found in the blade cleaning tissues” value ([11]; part of the amount in skin, 1% BA cream, mean ± SD) was 9 ± 7%, the “concentration of BA in skin” value ([11]; skin depth 710 μm, 1% BA cream, mean ± SD (SD 31 μmol/L)) was 55.8 µM and the “concentration of BA in skin” value ([11]; skin depth 810 μm, 1% BA cream, mean ± SD (SD 38 μmol/L)) was 39.6 µM. The IC50 [12] was 33.4 µM.
For `C=C(C)[C@@H]1CC[C@]2(CO)CC[C@]3(C)[C@H](CC[C@@H]4[C@@]5(C)CC[C@H](O)C(C)(C)[C@@H]5CC[C@]43C)[C@@H]12` [betulin], the “side effects of topical treatment” value [13] is given as “did not lead to any side effects”.

From PMC7003431, “Betulinic acid shows anticancer activity against equine melanoma cells and permeates isolated equine skin in vitro” (BMC Veterinary Research, 2020)
